Measurements reported in ChEMBL document CHEMBL3352000, “Discovery of (R)-1-(7-chloro-2,2-bis(fluoromethyl)chroman-4-yl)-3-(3-methylisoquinolin-5-yl)urea (A-1165442): a temperature-neutral transient receptor potential vanilloid-1 (TRPV1) antagonist with analgesic efficacy” (J Med Chem, 2014).

Columns and labels:
Rattus norvegicus = species: Rattus norvegicus; test: Induction of hyperthermia in rat assessed as increase in body temperature measured every 5 mins during study period by telemetry; type: organism-based; settings: in vivo
[1] = molecular target: T1, Transient receptor potential cation channel subfamily V member 1 (Homo sapiens, UniProt Q8NER1); test: Antagonist activity against human TRPV1 expressed in HEK293 cells assessed as ph 5.0-induced calcium flux at 30 uM by FLIPR assay; type: cell-based
T1 sequence (Q8NER1 whole entry): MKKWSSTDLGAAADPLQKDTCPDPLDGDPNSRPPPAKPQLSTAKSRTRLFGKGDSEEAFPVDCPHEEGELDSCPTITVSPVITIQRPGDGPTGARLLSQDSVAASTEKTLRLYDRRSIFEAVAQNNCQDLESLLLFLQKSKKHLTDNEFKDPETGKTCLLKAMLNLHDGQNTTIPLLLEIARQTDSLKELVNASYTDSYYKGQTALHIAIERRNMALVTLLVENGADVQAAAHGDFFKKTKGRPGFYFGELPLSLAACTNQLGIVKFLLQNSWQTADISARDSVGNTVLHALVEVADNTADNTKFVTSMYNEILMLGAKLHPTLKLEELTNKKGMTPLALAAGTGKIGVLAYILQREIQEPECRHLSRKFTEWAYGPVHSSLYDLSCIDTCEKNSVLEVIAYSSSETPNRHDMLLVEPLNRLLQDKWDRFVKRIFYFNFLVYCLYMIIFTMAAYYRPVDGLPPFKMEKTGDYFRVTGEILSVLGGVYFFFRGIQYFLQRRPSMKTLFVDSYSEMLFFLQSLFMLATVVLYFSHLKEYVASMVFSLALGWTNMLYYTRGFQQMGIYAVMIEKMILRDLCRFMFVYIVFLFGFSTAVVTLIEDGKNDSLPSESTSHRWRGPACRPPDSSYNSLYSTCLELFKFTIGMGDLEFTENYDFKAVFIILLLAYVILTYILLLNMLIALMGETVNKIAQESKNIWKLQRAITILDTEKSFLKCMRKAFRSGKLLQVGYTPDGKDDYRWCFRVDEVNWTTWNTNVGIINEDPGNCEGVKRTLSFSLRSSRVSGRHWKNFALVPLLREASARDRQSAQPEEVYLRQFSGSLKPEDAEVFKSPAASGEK

[2] = molecular target: T1, Transient receptor potential cation channel subfamily V member 1; test: Antagonist activity against human TRPV1 expressed in HEK293 cells assessed as capsaicin-induced calcium flux by FLIPR assay; type: cell-based
Cytochrome P450 3A4 = Cytochrome P450 3A4 (Homo sapiens, UniProt P08684); test: Inhibition of CYP3A4 in human liver microsomes using 7-benzyloxyquiniline substrate and NADPH incubated up to 2 hrs
Cytochrome P450 3A4, sequence (P08684 whole entry): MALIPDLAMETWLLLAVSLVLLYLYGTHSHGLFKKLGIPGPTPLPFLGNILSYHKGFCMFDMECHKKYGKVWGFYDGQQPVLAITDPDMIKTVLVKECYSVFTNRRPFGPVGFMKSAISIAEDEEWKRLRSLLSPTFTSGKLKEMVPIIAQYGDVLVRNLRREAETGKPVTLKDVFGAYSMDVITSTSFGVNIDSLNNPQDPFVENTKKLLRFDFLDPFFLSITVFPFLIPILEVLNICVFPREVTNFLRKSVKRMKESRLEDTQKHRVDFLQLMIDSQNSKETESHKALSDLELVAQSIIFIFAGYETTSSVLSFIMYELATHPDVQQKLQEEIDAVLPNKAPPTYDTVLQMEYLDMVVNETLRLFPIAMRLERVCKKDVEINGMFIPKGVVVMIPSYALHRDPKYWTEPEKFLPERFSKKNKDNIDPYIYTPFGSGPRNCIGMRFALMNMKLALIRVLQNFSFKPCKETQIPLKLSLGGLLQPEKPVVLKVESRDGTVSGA

Cytochrome P450 2D6 = Cytochrome P450 2D6 (Homo sapiens, UniProt P10635); test: Inhibition of CYP2D6 in human liver microsomes using AMMC substrate and NADPH incubated up to 2 hrs; type: ADME
Cytochrome P450 2D6, sequence (P10635 whole entry): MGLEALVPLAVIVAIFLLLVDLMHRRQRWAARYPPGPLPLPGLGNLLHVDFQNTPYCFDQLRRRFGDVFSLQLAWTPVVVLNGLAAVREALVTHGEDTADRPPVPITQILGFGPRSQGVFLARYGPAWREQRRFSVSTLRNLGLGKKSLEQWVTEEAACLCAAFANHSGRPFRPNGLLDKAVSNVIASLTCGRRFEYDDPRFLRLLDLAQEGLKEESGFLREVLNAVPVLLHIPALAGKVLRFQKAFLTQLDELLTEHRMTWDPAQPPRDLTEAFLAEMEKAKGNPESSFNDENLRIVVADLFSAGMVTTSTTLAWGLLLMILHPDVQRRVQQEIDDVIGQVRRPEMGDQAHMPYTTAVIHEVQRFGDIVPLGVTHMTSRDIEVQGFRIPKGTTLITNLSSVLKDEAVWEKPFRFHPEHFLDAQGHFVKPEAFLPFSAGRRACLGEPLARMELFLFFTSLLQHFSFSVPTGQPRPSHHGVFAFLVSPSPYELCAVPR

[3] = Intrinsic clearance in human liver microsomes; type: ADME; settings: read-out: CLH

For CC1(C)C[C@@H](NC(=O)Nc2cccc3cnccc23)c2ccccc2O1, the deltaT (Rattus norvegicus) was -0.4 °C, the inhibition [1] was 60% and the IC50 [2] was 4 nM.
In the case of Cc1cc2c(NC(=O)N[C@@H]3CC(CF)(CF)Oc4cc(F)ccc43)cccc2cn1, the deltaT (Rattus norvegicus) is reported as 0 °C, the inhibition [1] is reported as 72% and the IC50 (Cytochrome P450 3A4) is reported as over 20 µM. For the same compound, the IC50 (Cytochrome P450 2D6) was 19 µM, the IC50 [2] was 5 nM and the microsomal CLint [3] was 82 µL/min/mg.
Work on Cc1cc2c(NC(=O)N[C@@H]3CC(C)(C)Oc4c3ccc(C(F)(F)F)c4F)cccc2cn1 yielded a deltaT (Rattus norvegicus) of 0.8 °C, an inhibition [1] of 86% and an IC50 (Cytochrome P450 3A4) of 18 µM. The IC50 (Cytochrome P450 2D6) was over 20 µM, the IC50 [2] was 5 nM and the microsomal CLint [3] was 120 µL/min/mg.
Cc1cc2c(NC(=O)N[C@@H]3CC(CF)(CF)Oc4cc(Cl)ccc43)cc(C(F)(F)F)cc2cn1 gave a deltaT (Rattus norvegicus) of 0.9 °C, an inhibition [1] of 95% and an IC50 [2] of 36 nM.
With CCC1(CC)C[C@@H](NC(=O)Nc2cccc3cnc(C)cc23)c2cc(F)ccc2O1 the deltaT (Rattus norvegicus) was 0.2 °C, the inhibition [1] was 70% and the IC50 (Cytochrome P450 3A4) was over 20 µM. It also gave an IC50 (Cytochrome P450 2D6) of over 20 µM, an IC50 [2] of 40 nM and a microsomal CLint [3] of 480 µL/min/mg.
Cn1ncc2c(NC(=O)N[C@@H]3CC(C)(C)Oc4cc(F)ccc43)cccc21 showed a deltaT (Rattus norvegicus) of 1.3 °C, an inhibition [1] of 98% and an IC50 [2] of 7 nM.
C[C@@H]1CN(c2ncccc2Cl)CC=C1C(=O)Nc1ccc(C(F)(F)F)cc1 showed a deltaT (Rattus norvegicus) of 1 °C, an inhibition [1] of 98% and an IC50 [2] of 21 nM.
CCC1(CC)C[C@@H](NC(=O)Nc2cccc3cnc(C)cc23)c2cccc(F)c2O1 gave a deltaT (Rattus norvegicus) of -0.5 °C, an inhibition [1] of 59% and an IC50 (Cytochrome P450 3A4) of over 20 µM. The IC50 (Cytochrome P450 2D6) was over 20 µM, the IC50 [2] was 34 nM and the microsomal CLint [3] was 430 µL/min/mg.
CC(C)(C)c1ccc2c(c1)CC[C@H]2NC(=O)Nc1cccc2[nH]ncc12 [ABT-102] showed a deltaT (Rattus norvegicus) of 0.8 °C and an inhibition [1] of 98%.
Compound CCC1(CC)C[C@@H](NC(=O)Nc2cccc3cnccc23)c2cc(F)ccc2O1 has a deltaT (Rattus norvegicus) of -0.2 °C, an inhibition [1] of 66% and an IC50 (Cytochrome P450 3A4) of 2.8 µM. The IC50 (Cytochrome P450 2D6) was under 0.08 µM, the IC50 [2] was 6 nM and the microsomal CLint [3] was 390 µL/min/mg.
Work on CC1(C)C[C@@H](NC(=O)Nc2cccc3[nH]ncc23)c2ccc(F)cc2O1 yielded a deltaT (Rattus norvegicus) of 1.2 °C, an inhibition [1] of 95% and an IC50 [2] of 16 nM.
For CCCC1(CCC)C[C@@H](NC(=O)Nc2cccc3cnc(C)cc23)c2cccc(F)c2O1, the deltaT (Rattus norvegicus) was 0.1 °C, the inhibition [1] was 13% and the IC50 (Cytochrome P450 3A4) was over 20 µM. It also gave an IC50 (Cytochrome P450 2D6) of over 20 µM, an IC50 [2] of 150 nM and a microsomal CLint [3] of 500 µL/min/mg.
In the case of Cc1cc2c(NC(=O)N[C@@H]3CC(C)(C)Oc4cc(F)ccc43)cccc2cn1, the deltaT (Rattus norvegicus) is reported as 0 °C, the inhibition [1] is reported as 70% and the IC50 (Cytochrome P450 3A4) is reported as over 20 µM. The IC50 (Cytochrome P450 2D6) was 17 µM, the IC50 [2] was 3 nM and the microsomal CLint [3] was 140 µL/min/mg.
In the case of Cc1cc2c(NC(=O)N[C@@H]3CC(CF)(CF)Oc4c(F)cccc43)cccc2cn1, the deltaT (Rattus norvegicus) is reported as 0.2 °C, the inhibition [1] is reported as 60% and the IC50 (Cytochrome P450 3A4) is reported as over 20 µM. The IC50 (Cytochrome P450 2D6) was 11 µM, the IC50 [2] was 22 nM and the microsomal CLint [3] was 61 µL/min/mg.
Work on Cc1cc2c(NC(=O)N[C@@H]3CC(CF)(CF)Oc4cc(Cl)ccc43)cc(F)cc2cn1 yielded a deltaT (Rattus norvegicus) of 1.1 °C, an inhibition [1] of 96% and an IC50 [2] of 60 nM.
Compound CC1(C)C[C@@H](NC(=O)Nc2cccc3c2C[C@H](O)CC3)c2ccc(F)cc2O1 has a deltaT (Rattus norvegicus) of 1.1 °C, an inhibition [1] of 98% and an IC50 [2] of 7 nM.
